compound: COC1=CC=C(C=C1)COC2=C(C=C(C=C2)CC3=CN=C(N=C3N)N)OC [GW-2580] + CC1(C)CCC(c2ccc(Cl)cc2)=C(CN2CCN(c3ccc(C(=O)NS(=O)(=O)c4ccc(N[C@H](CCN5CCOCC5)CSc5ccccc5)c(S(=O)(=O)C(F)(F)F)c4)cc3)CC2)C1 [Navitoclax] (partner 0.5 µM); experiment: relative viability (nuclei count vs DMSO), 5 days (fraction); higher = more cells survive; conditions: first compound 0.08 µM
How it was run: (§1)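 Five library-drug doses in √10 steps were combined with a fixed anchor-drug dose, or a single drug was given alone, by pin tool to lung cancer cell lines in 1536-well plates the day after seeding. Nuclei were stained and counted after 5 days. Relative viability is the nuclei count in treated wells over that in vehicle wells, taken as the median of duplicate plates.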

Cell Line	relative viability
NCI-H2023	0.914
HCC-15	0.751
NCI-H1793	0.433
PC-14	1.07
EKVX	0.977
LC-2-ad	0.544
NCI-H1944	1.09
NCI-H1975	1.2
RERF-LC-KJ	0.871
PC-3 [JPC-3]	0.807

same assay, conditions: first compound 0.8 µM

Cell Line	relative viability
NCI-H2023	1.06
HCC-15	0.79
NCI-H1793	0.266
PC-14	1.05
EKVX	1.03
LC-2-ad	0.52
NCI-H1944	1.1
NCI-H1975	1.3
RERF-LC-KJ	1.04
PC-3 [JPC-3]	0.854

same assay, conditions: first compound 2.53 µM

Cell Line	relative viability
NCI-H2023	0.973
HCC-15	0.656
NCI-H1793	0.833
PC-14	0.905
EKVX	0.732
LC-2-ad	0.357
NCI-H1944	1.03
NCI-H1975	1.21
RERF-LC-KJ	1.13
PC-3 [JPC-3]	0.72

same assay, conditions: first compound 8 µM

Cell Line	relative viability
NCI-H2023	1.01
HCC-15	0.712
NCI-H1793	0.415
PC-14	1.05
EKVX	0.925
LC-2-ad	0.498
NCI-H1944	0.988
NCI-H1975	0.98
RERF-LC-KJ	0.995
PC-3 [JPC-3]	0.779

compound: Cc1cnc(Nc2ccc(OCCN3CCCC3)cc2)nc1Nc1cccc(S(=O)(=O)NC(C)(C)C)c1 [Fedratinib] + CC1(C)CCC(c2ccc(Cl)cc2)=C(CN2CCN(c3ccc(C(=O)NS(=O)(=O)c4ccc(N[C@H](CCN5CCOCC5)CSc5ccccc5)c(S(=O)(=O)C(F)(F)F)c4)cc3)CC2)C1 [Navitoclax] (partner 0.5 µM); experiment: as above; conditions: first compound 0.1 µM
How it was run: as §1

Cell Line	relative viability
NCI-H2023	1.04
HCC-15	0.654
NCI-H1793	0.295
PC-14	1.16
EKVX	1.08
LC-2-ad	0.436
NCI-H1944	1.04
NCI-H1975	1.08
RERF-LC-KJ	0.913
PC-3 [JPC-3]	0.856

same assay, conditions: first compound 0.3162 µM

Cell Line	relative viability
NCI-H2023	0.945
HCC-15	0.635
NCI-H1793	0.456
PC-14	1.08
EKVX	0.918
LC-2-ad	0.45
NCI-H1944	1.07
NCI-H1975	1.01
RERF-LC-KJ	0.948
PC-3 [JPC-3]	0.804

same assay, conditions: first compound 1 µM

Cell Line	relative viability
NCI-H2023	0.946
HCC-15	0.487
NCI-H1793	0.476
PC-14	0.989
EKVX	0.944
LC-2-ad	0.3
NCI-H1944	1.03
NCI-H1975	0.953
RERF-LC-KJ	1.07
PC-3 [JPC-3]	0.782

compound: Cc1cnc(Nc2ccc(OCCN3CCCC3)cc2)nc1Nc1cccc(S(=O)(=O)NC(C)(C)C)c1 [Fedratinib] + COc1cc2c(Oc3ccc(NC(=O)C4(C(=O)Nc5ccc(F)cc5)CC4)cc3F)ccnc2cc1OCCCN1CCOCC1 [Foretinib] (partner 0.25 µM); experiment: as above; conditions: first compound 0.1 µM
How it was run: as §1

Cell Line	relative viability
NCI-H2023	0.8
HCC-15	1.02
NCI-H1793	0.506
PC-14	0.975
EKVX	0.791
LC-2-ad	1.02
NCI-H1944	0.837
NCI-H1975	1.09
RERF-LC-KJ	0.883
PC-3 [JPC-3]	0.982

same assay, conditions: first compound 0.3162 µM

Cell Line	relative viability
NCI-H2023	0.873
HCC-15	1.01
NCI-H1793	0.765
PC-14	1.08
EKVX	0.687
LC-2-ad	1.01
NCI-H1944	0.962
NCI-H1975	0.947
RERF-LC-KJ	0.904
PC-3 [JPC-3]	1.08

same assay, conditions: first compound 1 µM

Cell Line	relative viability
NCI-H2023	0.643
HCC-15	0.86
NCI-H1793	0.45
PC-14	1
EKVX	0.828
LC-2-ad	0.784
NCI-H1944	0.824
NCI-H1975	0.746
RERF-LC-KJ	0.864
PC-3 [JPC-3]	1.06

compound: Cc1cnc(Nc2ccc(OCCN3CCCC3)cc2)nc1Nc1cccc(S(=O)(=O)NC(C)(C)C)c1 [Fedratinib] + Cc1nc(NC(=O)N2CCC[C@H]2C(N)=O)sc1-c1ccnc(C(C)(C)C(F)(F)F)c1 [Alpelisib] (partner 2 µM); experiment: as above; conditions: first compound 0.1 µM
How it was run: as §1

Cell Line	relative viability
NCI-H2023	0.578
HCC-15	0.746
NCI-H1793	0.746
PC-14	0.915
EKVX	0.898
LC-2-ad	0.932
NCI-H1944	0.804
NCI-H1975	0.613
RERF-LC-KJ	0.792
PC-3 [JPC-3]	0.985

same assay, conditions: first compound 0.3162 µM

Cell Line	relative viability
NCI-H2023	0.629
HCC-15	0.793
NCI-H1793	0.683
PC-14	0.961
EKVX	1.04
LC-2-ad	0.879
NCI-H1944	0.945
NCI-H1975	0.692
RERF-LC-KJ	0.86
PC-3 [JPC-3]	1.01

same assay, conditions: first compound 1 µM

Cell Line	relative viability
NCI-H2023	0.56
HCC-15	0.758
NCI-H1793	0.627
PC-14	0.916
EKVX	0.931
LC-2-ad	0.772
NCI-H1944	0.716
NCI-H1975	0.467
RERF-LC-KJ	0.756
PC-3 [JPC-3]	1.09

compound: Cc1cnc(Nc2ccc(OCCN3CCCC3)cc2)nc1Nc1cccc(S(=O)(=O)NC(C)(C)C)c1 [Fedratinib] + Nc1nc2[nH]cc(CCc3ccc(C(=O)N[C@@H](CCC(=O)O)C(=O)O)cc3)c2c(=O)[nH]1 [Pemetrexed] (partner 0.2 µM); experiment: as above; conditions: first compound 0.1 µM
How it was run: as §1

Cell Line	relative viability
NCI-H2023	0.272
HCC-15	0.212
NCI-H1793	0.81
PC-14	0.124
EKVX	0.377
LC-2-ad	0.284
NCI-H1944	0.665
NCI-H1975	0.29
RERF-LC-KJ	0.454
PC-3 [JPC-3]	1.04

same assay, conditions: first compound 0.3162 µM

Cell Line	relative viability
NCI-H2023	0.254
HCC-15	0.225
NCI-H1793	0.847
PC-14	0.132
EKVX	0.431
LC-2-ad	0.267
NCI-H1944	0.643
NCI-H1975	0.306
RERF-LC-KJ	0.463
PC-3 [JPC-3]	1.23

same assay, conditions: first compound 1 µM

Cell Line	relative viability
NCI-H2023	0.158
HCC-15	0.202
NCI-H1793	0.724
PC-14	0.131
EKVX	0.392
LC-2-ad	0.277
NCI-H1944	0.624
NCI-H1975	0.272
RERF-LC-KJ	0.502
PC-3 [JPC-3]	1.03

compound: Cc1cnc(Nc2ccc(OCCN3CCCC3)cc2)nc1Nc1cccc(S(=O)(=O)NC(C)(C)C)c1 [Fedratinib] + Nc1ncn([C@H]2C[C@H](O)[C@@H](CO)O2)c(=O)n1 [Decitabine] (partner 2 µM); experiment: as above; conditions: first compound 0.1 µM
How it was run: as §1

Cell Line	relative viability
NCI-H2023	0.21
HCC-15	0.507
NCI-H1793	0.501
PC-14	0.193
EKVX	0.315
LC-2-ad	0.902
NCI-H1944	0.435
NCI-H1975	0.372
RERF-LC-KJ	0.64
PC-3 [JPC-3]	0.717

same assay, conditions: first compound 0.3162 µM

Cell Line	relative viability
NCI-H2023	0.23
HCC-15	0.738
NCI-H1793	0.526
PC-14	0.23
EKVX	0.37
LC-2-ad	0.776
NCI-H1944	0.451
NCI-H1975	0.315
RERF-LC-KJ	0.635
PC-3 [JPC-3]	0.827

same assay, conditions: first compound 1 µM

Cell Line	relative viability
NCI-H2023	0.117
HCC-15	0.533
NCI-H1793	0.406
PC-14	0.094
EKVX	0.363
LC-2-ad	0.741
NCI-H1944	0.421
NCI-H1975	0.343
RERF-LC-KJ	0.277
PC-3 [JPC-3]	0.75

— the supplement of paper PMC10307832
